Laboratory results taken from article PMC3407089, “Influence of GABAA Receptor α Subunit Isoforms on the Benzodiazepine Binding Site” (PLoS ONE, 2012).

Key:
α5β1γ2 receptors = α5β1γ2 receptors (Rattus norvegicus, UniProt P18508+P19969); test: biochemical
Procedure: Culturing of cells and membrane preparation were done as described before [30].
For this affinity estimate, membranes were re-suspended in phosphate buffer using a Teflon homogenizer. […] The final protein concentration was 0.1–1 mg of protein/ml. […] Membranes were collected by rapid vacuum filtration on GF/C filters. After three washing steps (3 sec each) with 5 ml of phosphate buffer, the filter-retained radioactivity was determined by liquid scintillation counting.

[1] = biological target: α1S205Cβ2γ2 GABAA receptor (Rattus norvegicus, UniProt P18508+P62813, S232C); parameters: method as in PMID 19804380; settings: 10 µM 3-NCS; cited from earlier work
[2] = biological target: α1S204Cβ2γ2 GABAA receptor; test: Covalent reaction of 3-NCS at the binding level (residual radioligand binding, HEK293 membranes); parameters: key: n.r.: no covalent reaction; settings: 3-NCS 30 min on ice, washed; residual [^3H]Ro15–1788 binding
Procedure: (§1) cDNAs coding for the αx (x = 1, 2, 3, 6), β2, and γ2S subunits DNA (20 µg : 20 µg : 20 µg) per 9 cm diameter dish were transfected in human embryonic kidney (HEK) 293 cells (American Type of Culture Collection, MD, USA, CRL 1573) using the calcium phosphate precipitation technique. For α5 containing receptors β2 was replaced by β1. […] Culturing of cells and membrane preparation were done as described before.
(§2) As detailed in previous work, [30], [33] this procedure included three steps: incubation of membranes expressing recombinant wild type or mutant receptors with the reactive agent followed by extensive washing of the membranes in order to remove non-reacted compound and a radioactive ligand binding assay to determine residual binding. No covalent reaction would result in 100% residual binding, and 100% covalent reaction would result in 0% residual binding.
(§3) Briefly, the membranes were re-suspended in phosphate buffer (100 mM KCl, 10 mM KH2PO4, 0.1 mM EDTA, pH 7.4) using a Glass/Teflon homogenizer. 0.1–1.0 mg/mL of protein were incubated in a total volume of 360 µL with either 10 µM (determination of degree of covalent reaction) or several concentrations of 3-NCS for 30 min on ice. Membranes were collected with rapid filtration on a round 7 mm diameter glass fiber filter (GF/C; Whatman) that was placed on a round 24 mm diameter glass fiber filter (GF/C; Whatman), both pre-washed with phosphate buffer. […] Radioactivity was determined by liquid scintillation counting. Non-specific binding was determined in the presence of 100 µM Ro 15–1788. In control experiments, washing efficiency was estimated by placing radioactivity on the small filter. More than 99.95% of the radioactivity was removed (not shown).
(§4) Concentration response curves for 3-NCS were fitted with the equation C(c) = Cmax/(1+(EC50/c)), where c is the concentration of 3-NCS, EC50 the concentration of 3-NCS where half maximal covalent reaction was observed, Cmax is the maximal extent of the covalent reaction and C the measured extent of the covalent reaction.

[3] = biological target: α6N204Cβ2γ2 GABAA receptor; test: as above; parameters: key: n.r.: no covalent reaction; settings: 3-NCS 30 min on ice, washed; [^3H]15–4513 as radioactive ligand
Procedure: as §1, §2, §3, §4

[4] = biological target: α1T206Cβ2γ2 GABAA receptor (Rattus norvegicus, UniProt P18508+P62813, T233C); parameters: method as in PMID 19804380; settings: 10 µM 3-NCS; cited from earlier work
α1T206Cβ2γ2 GABAA receptor, sequence (P62813 28-455 T233C): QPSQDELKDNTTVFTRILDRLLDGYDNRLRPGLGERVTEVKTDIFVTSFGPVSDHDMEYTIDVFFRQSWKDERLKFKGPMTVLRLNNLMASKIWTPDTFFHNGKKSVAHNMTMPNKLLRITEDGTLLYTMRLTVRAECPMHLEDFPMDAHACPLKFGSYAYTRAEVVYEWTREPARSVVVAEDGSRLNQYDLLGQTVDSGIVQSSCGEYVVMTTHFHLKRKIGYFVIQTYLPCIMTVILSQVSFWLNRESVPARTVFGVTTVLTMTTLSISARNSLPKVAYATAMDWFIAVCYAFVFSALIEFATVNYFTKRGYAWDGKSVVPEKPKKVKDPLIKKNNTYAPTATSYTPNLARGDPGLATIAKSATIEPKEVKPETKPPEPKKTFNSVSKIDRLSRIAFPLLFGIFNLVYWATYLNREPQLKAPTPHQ
α1T206Cβ2γ2 GABAA receptor, sequence (P18508 39-466): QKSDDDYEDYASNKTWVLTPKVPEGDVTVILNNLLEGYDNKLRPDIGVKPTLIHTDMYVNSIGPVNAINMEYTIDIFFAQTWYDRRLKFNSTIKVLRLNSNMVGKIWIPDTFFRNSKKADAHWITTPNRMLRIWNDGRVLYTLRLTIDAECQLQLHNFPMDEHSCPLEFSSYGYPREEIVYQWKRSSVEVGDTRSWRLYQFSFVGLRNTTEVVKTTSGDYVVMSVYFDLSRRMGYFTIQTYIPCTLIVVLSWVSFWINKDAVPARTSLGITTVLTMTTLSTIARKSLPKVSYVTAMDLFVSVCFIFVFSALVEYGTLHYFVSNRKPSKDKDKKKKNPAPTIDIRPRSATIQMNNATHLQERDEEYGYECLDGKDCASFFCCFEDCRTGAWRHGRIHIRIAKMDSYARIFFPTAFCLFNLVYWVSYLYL
α1T206Cβ2γ2 GABAA receptor, sequence (P63138 26-474 partner): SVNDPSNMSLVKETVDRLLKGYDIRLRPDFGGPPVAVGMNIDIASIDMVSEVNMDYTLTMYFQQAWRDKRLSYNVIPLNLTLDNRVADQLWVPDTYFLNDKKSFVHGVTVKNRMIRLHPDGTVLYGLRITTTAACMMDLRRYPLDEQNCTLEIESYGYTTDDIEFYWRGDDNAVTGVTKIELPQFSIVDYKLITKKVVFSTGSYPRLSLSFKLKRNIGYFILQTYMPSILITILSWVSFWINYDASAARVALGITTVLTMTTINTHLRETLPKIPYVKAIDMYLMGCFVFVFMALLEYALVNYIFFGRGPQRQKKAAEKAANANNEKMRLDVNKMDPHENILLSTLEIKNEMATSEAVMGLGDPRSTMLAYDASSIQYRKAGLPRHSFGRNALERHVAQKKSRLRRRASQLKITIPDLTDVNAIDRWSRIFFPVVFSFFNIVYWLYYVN

[5] = system: α1S204Cβ2γ2 GABAA receptor; test: Covalent reaction at the functional level (two-electrode voltage clamp, Xenopus oocytes); assay type: cell-based; settings: after 10 µM 3-NCS and removal of non-covalently reacted 3-NCS
Procedure: (§5) Capped cRNAs were synthesized (Ambion, Austin, TX, USA) from the linearized plasmids with a cytomegalovirus promotor (pCMVvectors) containing the different subunits, respectively. A poly-A tail of about 400 residues was added to each transcript using yeast poly- A polymerase (United States Biologicals, Cleveland, OH, USA). The concentration of the cRNA was quantified on a formaldehyde gel using Radiant Red stain (Bio-Rad) for visualization of the RNA. Known concentrations of RNA ladder (Invitrogen) were loaded as standard on the same gel. cRNAs were precipitated in ethanol/isoamylalcohol 19∶ 1, the dried pellet dissolved in water and stored at −80°C. cRNA mixtures were prepared from these stock solutions and stored at −80°C. Xenopus laevis oocytes were prepared, injected and defolliculated as described previously, [39]. They were injected with 50 nL of the cRNA solution containing wild type or mutated α1 or α2, α3, α5, α6 and wild type β2 and γ2 subunits at a concentration of 10 nM : 10 nM : 50 nM [40] and then incubated in modified Barth’s solution at +18°C for at least 24 h before the measurements.
(§6) Currents were measured using a modified two-electrode voltage clamp amplifier Oocyte clamp OC-725 (Warner Instruments) in combination with a XY-recorder (90% response time 0.1s) or digitized at 100 Hz using a PowerLab 2/20 (AD Instruments) using the computer programs Chart (ADInstruments GmbH, Spechbach, Germany). Tests with a model oocyte were performed to ensure linearity in the larger current range. The response was linear up to 15 µA.
(§7) Electrophysiological experiments were performed by using the two-electrode voltage clamp method at a holding potential of −80 mV. The perfusion medium contained 90 mM NaCl, 1 mM KCl, 1 mM MgCl2, 1 mM CaCl2, and 5 mM Na-HEPES (pH 7.4) and was applied by gravity flow 6 ml/min. The perfusion medium was applied through a glass capillary with an inner diameter of 1.35 mm, the mouth of which was placed about 0.4 mm from the surface of the oocyte. Allosteric modulation via the benzodiazepine site was measured at a GABA concentration eliciting 2–5% of the maximal GABA current amplitude. GABA was applied for 20 s alone or in combination with allosteric compound. 6 ml of the covalent reacting compound was applied to the oocyte and incubated for 3 min while stopping the flow of the perfusion medium. Modulation of GABA currents was expressed as (I(modulator + GABA)/IGABA –1) * 100%. The perfusion system was cleaned between drug applications by washing with DMSO to avoid contamination.

[6] = system: α6N204Cβ2γ2 GABAA receptor; test: as above; assay type: cell-based; settings: after 10 µM 3-NCS and removal of non-covalently reacted 3-NCS
Procedure: as §5, §6, §7

[7] = system: α3T231Cβ2γ2 GABAA receptor; test: as above; assay type: cell-based; settings: after 10 µM 3-NCS and removal of non-covalently reacted 3-NCS
Procedure: as §5, §6, §7

[8] = system: α5T208Cβ2γ2 GABAA receptor; test: as above; assay type: cell-based; settings: after 10 µM 3-NCS and removal of non-covalently reacted 3-NCS
Procedure: as §5, §6, §7

[9] = system: α6S203Cβ2γ2 GABAA receptor; test: as above; assay type: cell-based; settings: after 10 µM 3-NCS and removal of non-covalently reacted 3-NCS
Procedure: as §5, §6, §7

[10] = system: α3S230Cβ2γ2 GABAA receptor; test: as above; assay type: cell-based; settings: after 10 µM 3-NCS and removal of non-covalently reacted 3-NCS
Procedure: as §5, §6, §7

mutated GABAA receptors = test: Time course of covalent reaction at the binding level (preliminary experiments); settings: 10 µM and 1 µM 3-NCS, not shown
Procedure: as §2, §3

[11] = system: α1S204Cβ2γ2 GABAA receptor; parameters: method as in PMID 19804380; settings: 10 µM 3-NCS; cited from earlier work

α5β1γ2 receptors, sequence (P19969 32-464 limits assumed): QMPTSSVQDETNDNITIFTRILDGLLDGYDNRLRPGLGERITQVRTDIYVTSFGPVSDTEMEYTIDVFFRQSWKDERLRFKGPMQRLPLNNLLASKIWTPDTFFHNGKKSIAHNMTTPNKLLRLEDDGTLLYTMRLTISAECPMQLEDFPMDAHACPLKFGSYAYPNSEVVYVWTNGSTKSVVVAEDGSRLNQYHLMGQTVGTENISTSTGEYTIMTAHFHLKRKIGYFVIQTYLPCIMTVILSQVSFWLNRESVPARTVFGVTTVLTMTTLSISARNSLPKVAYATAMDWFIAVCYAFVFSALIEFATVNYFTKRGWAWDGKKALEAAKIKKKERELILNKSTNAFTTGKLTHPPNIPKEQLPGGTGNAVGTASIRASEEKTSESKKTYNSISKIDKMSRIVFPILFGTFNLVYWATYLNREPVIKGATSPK
α5β1γ2 receptors, sequence (P15431 26-474 partner): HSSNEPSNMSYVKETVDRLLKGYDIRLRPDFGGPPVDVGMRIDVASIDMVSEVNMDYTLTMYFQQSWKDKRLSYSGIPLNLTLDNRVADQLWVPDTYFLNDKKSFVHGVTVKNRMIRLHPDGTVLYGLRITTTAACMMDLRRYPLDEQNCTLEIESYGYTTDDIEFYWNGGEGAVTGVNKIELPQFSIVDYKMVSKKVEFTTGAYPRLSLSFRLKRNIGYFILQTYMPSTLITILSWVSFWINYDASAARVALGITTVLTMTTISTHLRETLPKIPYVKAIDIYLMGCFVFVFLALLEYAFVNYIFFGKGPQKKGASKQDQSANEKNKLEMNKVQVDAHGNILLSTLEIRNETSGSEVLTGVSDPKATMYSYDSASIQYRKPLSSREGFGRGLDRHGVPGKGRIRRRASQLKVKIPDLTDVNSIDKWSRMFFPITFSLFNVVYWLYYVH
α5β1γ2 receptors, sequence (P18508 39-466): as the sequence (P18508 39-466) above
α1S205Cβ2γ2 GABAA receptor, sequence (P62813 28-455 S232C): as the sequence (P62813 28-455 T233C) above, with S205C, C206T counted along it
α1S205Cβ2γ2 GABAA receptor, sequence (P18508 39-466): as the sequence (P18508 39-466) above
α1S205Cβ2γ2 GABAA receptor, sequence (P63138 26-474 partner): as the sequence (P63138 26-474 partner) above

CN1C(=O)C(N=C=S)N=C(c2ccccc2)c2cc([N+](=O)[O-])ccc21 (stereo not shown) [3-NCS]
Ki (α5β1γ2 receptors): 9.84 ± 1.48 µM | Covalent reaction with 3-NCS (in words) [1]: resulted in covalent reaction | EC50 of the covalent reaction [2]: n.r. | EC50 of the covalent reaction [3]: n.r. ^a | Covalent reaction with 3-NCS (in words) [4]: resulted in covalent reaction | % allosteric modulation, 3-NCS [5]: 4±4% | % allosteric modulation, 3-NCS [6]: −4±6% | % allosteric modulation, 3-NCS [7]: 28±16% | % allosteric modulation, 3-NCS [8]: 23±18% | % allosteric modulation, 3-NCS [9]: 0±2% | % allosteric modulation, 3-NCS [10]: 15±11% | Time to maximum of covalent reaction (mutated GABAA receptors): ≤ 15 s | Covalent reaction with 3-NCS (in words) [11]: did not covalently react
